The results in this text go back to publication PMC10706071, “Simultaneous Improvement in the Thermostability and Catalytic Activity of Epoxidase Lsd18 for the Synthesis of Lasalocid A” (International Journal of Molecular Sciences, 2023).

Common to all, as to type: binding
The target in test [1] is T1, Lsd18 (Streptomyces lasalocidi, UniProt B5M9L6, S179M).
T1 construct: full-length gene in pCold (NdeI/EcoRI), E. coli BL21(DE3) with chaperone plasmid pG-KJE8, Ni beads and gel filtration; reductively ethylated for crystals only
The experiment in a line: bound FAD released by heating, absorbance at […] nm. The following applies: co-purified FAD; 20 mM Tris pH 8.5, 150 mM NaCl.

Test [2] has as its target T2, Lsd18 (Streptomyces lasalocidi, UniProt B5M9L6, T173M).
T2 construct: full-length gene in pCold (NdeI/EcoRI), E. coli BL21(DE3) with chaperone plasmid pG-KJE8, Ni beads and gel filtration; reductively ethylated for crystals only
Put plainly: bound FAD released by heating, absorbance at […] nm. The following applies: co-purified FAD; 20 mM Tris pH 8.5, 150 mM NaCl.

Test [3] concerns the target T3, Lsd18 (Streptomyces lasalocidi, UniProt B5M9L6).
T3 construct: full-length gene in pCold (NdeI/EcoRI), E. coli BL21(DE3) with chaperone plasmid pG-KJE8, Ni beads and gel filtration; reductively ethylated for crystals only
T3 sequence (B5M9L6 1-472): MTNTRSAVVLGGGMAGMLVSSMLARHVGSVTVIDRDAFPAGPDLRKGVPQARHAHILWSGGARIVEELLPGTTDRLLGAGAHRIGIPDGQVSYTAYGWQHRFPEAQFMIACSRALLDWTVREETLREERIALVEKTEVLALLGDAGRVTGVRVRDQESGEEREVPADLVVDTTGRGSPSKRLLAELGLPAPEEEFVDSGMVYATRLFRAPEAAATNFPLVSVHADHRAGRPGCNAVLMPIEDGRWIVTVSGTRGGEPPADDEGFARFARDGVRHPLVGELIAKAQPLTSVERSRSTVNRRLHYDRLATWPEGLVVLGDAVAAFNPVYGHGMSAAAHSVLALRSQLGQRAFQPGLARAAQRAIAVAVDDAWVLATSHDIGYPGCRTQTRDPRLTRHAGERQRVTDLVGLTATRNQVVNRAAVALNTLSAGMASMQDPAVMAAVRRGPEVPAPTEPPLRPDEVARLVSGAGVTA
Put plainly: bound FAD released by heating ([…] °C, […] min), absorbance at […] nm. To be noted: co-purified FAD; 20 mM Tris pH 8.5, 150 mM NaCl.

Test [4] deals with T4, Lsd18 (Streptomyces lasalocidi, UniProt B5M9L6, T173M/S179M).
T4 construct: full-length gene in pCold (NdeI/EcoRI), E. coli BL21(DE3) with chaperone plasmid pG-KJE8, Ni beads and gel filtration; reductively ethylated for crystals only
The experiment in a line: X-ray crystal structure ([…] Å); FAD content by absorbance at […] nm. The following applies: co-purified FAD; reductively ethylated protein for crystals.

T2 sequence (B5M9L6 whole entry T173M): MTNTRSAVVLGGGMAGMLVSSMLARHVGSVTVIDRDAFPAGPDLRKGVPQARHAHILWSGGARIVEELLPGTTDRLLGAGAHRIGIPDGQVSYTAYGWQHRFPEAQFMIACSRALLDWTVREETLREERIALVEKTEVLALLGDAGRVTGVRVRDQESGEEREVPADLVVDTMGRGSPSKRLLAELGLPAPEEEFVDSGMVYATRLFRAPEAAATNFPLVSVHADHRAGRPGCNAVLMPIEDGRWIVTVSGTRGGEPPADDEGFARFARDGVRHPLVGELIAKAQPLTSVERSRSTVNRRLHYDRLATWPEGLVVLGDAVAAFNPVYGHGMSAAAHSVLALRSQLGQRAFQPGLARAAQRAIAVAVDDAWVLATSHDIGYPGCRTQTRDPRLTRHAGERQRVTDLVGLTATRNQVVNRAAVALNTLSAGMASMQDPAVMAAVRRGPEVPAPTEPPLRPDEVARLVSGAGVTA
T4 sequence (B5M9L6 whole entry T173M/S179M): as the sequence (B5M9L6 whole entry T173M) above, with S179M counted along it
T1 sequence (B5M9L6 whole entry S179M): as the sequence (B5M9L6 whole entry T173M) above, with M173T, S179M counted along it

Take `Cc1cc2nc3c(=O)[nH]c(=O)nc-3n(C[C@H](O)[C@H](O)[C@H](O)COP(=O)(O)OP(=O)(O)OC[C@H]3O[C@@H](n4cnc5c(N)ncnc54)[C@H](O)[C@@H]3O)c2cc1C` [FAD]: the FAD content result on Lsd18 [1] was “the FAD content in the mutants Lsd18-T189M, Lsd18-S195M, Lsd18-T189M-S195M increased”; on Lsd18 [2], “the FAD content in the mutants Lsd18-T189M, Lsd18-S195M, Lsd18-T189M-S195M increased”; on Lsd18 [3] it was “the yellower the color of Lsd18 (attributed to bound FAD), the more stable it was”. In addition, the “X-ray crystal structure (3.76 Å); FAD content by absorbance at 451 nm” value on Lsd18 [4] is on record as “M189 forms a hydrogen bond with the cofactor FAD that could stabilize the binding”.
